Experimental data reported in US20060063784A1, “Method of using substituted pyrazolo [1,5-a] pyrimidines” (priority 2004, published 2006).
Read-outs that look alike come from different tables or passages of the source.

What was measured:
[1] = test system: 80S14 (p21-deficient) cells; assay: Cytotoxicity assay using isogenic cell lines: IC50 in 80S14 (p21-deficient) cells, SRB; assay type: cell-based, human; conditions: Homo sapiens
Procedure, shortened: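 IC50 is the concentration halving proliferation relative to untreated controls, read from SRB absorbance (560 nm) after TCA fixation. Test agent dilutions (5 pM–50 μM or 170 pg/ml–10 μg/ml) were left on p21-deficient 80S14 cells (12,000/well, pre-incubated overnight) for 5 days at 37 °C.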

LoVo Colon cell line = assay: Cytotoxicity assay using LoVo colon cell line, SRB; assay type: cell-based; conditions: read-out: Inhibition of LoVo
Procedure, shortened: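 Growth inhibition read by sulforhodamine B after 4-day compound exposure at 37 °C. Colon LoVo cells plated at 4000 per well in RPMI/10% FBS a day earlier; doses ranged 5 pM-20 μM or 170 pg/ml-10 μg/ml. IC50 is the concentration halving proliferation versus untreated wells.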

[2] = 120 h, 80S14 (p21-deficient) cells, 5 days, SRB, class symbols, read-out: IC50 for 80S14
[3] = Homo sapiens, 96 h, Cellular activity in LoVo cell, 4 days incubation, SRB
[4] = 80S14, 120 h, read-out: IC50 for 80S14 (uM)

SMILES | IC50 [1, 2] [µM] | IC50 (LoVo Colon cell line; [3]) [µM] | IC50 [1, 4] [µM] | IC50 (LoVo Colon cell line; Homo sapiens, LoVo, 96 h) [µM] | IC50 (LoVo Colon cell line; Cellular activity in LoVo cell, 4 days incubation, SRB) [µM]
CC(C)NC(=O)Nc1ccc(-c2ccnc3c(C(=O)c4cccs4)cnn23)s1 [Example 329, N-Isopropyl-N′-{5-[3-(thien-2-ylcarbonyl)pyrazolo[1,5-a]pyrimidin-7-yl]thien-2-yl}urea] | 1 to 10 | 0.1 to 1 |  |  | 
Nc1cc(-c2ccnc3c(C(=O)c4cccs4)cnn23)cs1 [Example 331, [7-(5-Aminothien-3-yl)pyrazolo[1,5-a]pyrimidin-3-yl](thien-2-yl)methanone] | 1 to 10 | 1 to 20 |  |  | 
CCOC(=S)Nc1cccc(-c2ccnc3c(C(=O)c4cccs4)cnn23)c1 [Example 332, O-Ethyl 3-[3-(thien-2-ylcarbonyl)pyrazolo[1,5-a]pyrimidin-7-yl]phenylthiocarbamate] | < 1 | < 0.1 |  |  | 
O=C(c1cccs1)c1cnn2c(-c3cccc(NC(=S)Nc4ccccc4)c3)ccnc12 [Example 334, N-Phenyl-N′-{3-[3-(thien-2-ylcarbonyl)pyrazolo[1,5-a]pyrimidin-7-yl]phenyl}thiourea] | < 1 | 0.1 to 1 |  |  | 
CC(C)OC(=O)Nc1ccc(Cl)c(-c2ccnc3c(C(=O)c4cccs4)cnn23)c1 [Example 335, Isopropyl 4-chloro-3-[3-(thien-2-ylcarbonyl)pyrazolo[1,5-a]pyrimidin-7-yl]phenylcarbamate] |  |  | < 1 | 0.1 to 1 | 
O=C(c1nccs1)c1cnn2c(-c3cccc(NC(=O)C4CC4)c3)ccnc12 [Example 338, N-{3-[3-(1,3-Thiazol-2-ylcarbonyl)pyrazolo[1,5-a]pyrimidin-7-yl]phenyl}cyclopropanecarboxamide] | 1 to 10 | 0.1 to 1 |  |  | 
CC(C)CC(=O)Nc1ccc(Cl)c(-c2ccnc3c(C(=O)c4cccs4)cnn23)c1 [Example 339, N-{4-Chloro-3-[3-(thien-2-ylcarbonyl)pyrazolo[1,5-a]pyrimidin-7-yl]phenyl}-3-methylbutanamide] |  |  | 1 to 10 | 0.1 to 1 | 
O=C(Nc1ccc(Cl)c(-c2ccnc3c(C(=O)c4cccs4)cnn23)c1)c1ccccc1 [Example 341, N-{4-Chloro-3-[3-(thien-2-ylcarbonyl)pyrazolo[1,5-a]pyrimidin-7-yl]phenyl}benzamide] | 1 to 10 | 0.1 to 1 |  |  | 
CC(C)CC(=O)Nc1cc(-c2ccnc3c(C(=O)c4cccs4)cnn23)ccc1F [Example 342, N-{2-Fluoro-5-[3-(thien-2-ylcarbonyl)pyrazolo[1,5-a]pyrimidin-7-yl]phenyl}-3-methylbutanamide] |  |  | < 1 | < 0.1 | 
CC(C)CC(=O)Nc1ccc(-c2ccnc3c(C(=O)c4cccs4)cnn23)s1 [Example 343, 3-Methyl-N-{5-[3-(thien-2-ylcarbonyl)pyrazolo[1,5-a]pyrimidin-7-yl]thien-2-yl}butanamide] | 1 to 10 | 1 to 20 |  |  | 
CC(C)OC(=O)Nc1ccc(-c2ccnc3c(C(=O)c4cccs4)cnn23)s1 [Example 344, Isopropyl 5-[3-(thien-2-ylcarbonyl)pyrazolo[1,5-a]pyrimidin-7-yl]thien-2-ylcarbamate] | 1 to 10 | 1 to 20 |  |  | 
Nc1ccc(-c2ccnc3c(C(=O)c4cccs4)cnn23)s1 [Example 345, [7-(5-Aminothien-2-yl)pyrazolo[1,5-a]pyrimidin-3-yl](thien-2-yl)methanone] | 10 to 50 | 1 to 20 |  |  | 
O=C(CCCCl)Nc1cccc(-c2ccnc3c(C(=O)c4cccs4)cnn23)c1 [Example 346, 4-Chloro-N-{3-[3-(thien-2-ylcarbonyl)pyrazolo[1,5-a]pyrimidin-7-yl]phenyl}butanamide] | 1 to 10 | 0.1 to 1 |  |  | 
CC(C)OC(=O)Nc1cc(-c2ccnc3c(C(=O)c4cccs4)cnn23)ccc1F [Example 347, Isopropyl 2-fluoro-5-[3-(thien-2-ylcarbonyl)pyrazolo[1,5-a]pyrimidin-7-yl]phenylcarbamate] |  |  | < 1 | < 0.1 | 
CC(C)OC(=O)Nc1cc(-c2ccnc3c(C(=O)c4cccs4)cnn23)ccc1N(C)C [Example 348, Isopropyl 2-(dimethylamino)-5-[3-(thien-2-ylcarbonyl)pyrazolo[1,5-a]pyrimidin-7-yl]phenylcarbamate] | 1 to 10 | 0.1 to 1 |  |  | 
O=C(c1cccs1)c1cnn2c(-c3cccc(NCc4ccccc4)c3)ccnc12 [Example 349, {7-[3-(Benzylamino)phenyl]pyrazolo[1,5-a]pyrimidin-3-yl}(thien-2-yl)methanone] | 1 to 10 | 0.1 to 1 |  |  | 
CC(C)CC(=O)Nc1cc(-c2ccnc3c(C(=O)c4cccs4)cnn23)cs1 [Example 351, 3-Methyl-N-{4-[3-(thien-2-ylcarbonyl)pyrazolo[1,5-a]pyrimidin-7-yl]thien-2-yl}butanamide] | 1 to 10 | 1 to 20 |  |  | 

SMILES | IC50 [1, 2] [µM] | IC50 (LoVo Colon cell line; [3]) [µM] | IC50 [1, 4] [µM] | IC50 (LoVo Colon cell line; Homo sapiens, LoVo, 96 h) [µM] | IC50 (LoVo Colon cell line; Cellular activity in LoVo cell, 4 days incubation, SRB) [µM]
Nc1cc(-c2ccnc3c(C(=O)c4cccs4)cnn23)ccc1F [Example 352, [7-(3-Amino-4-fluorophenyl)pyrazolo[1,5-a]pyrimidin-3-yl](thien-2-yl)methanone] | 1 to 10 | 1 to 20 |  |  | 
O=C(Nc1cccc(-c2ccnc3c(C(=O)c4cccs4)cnn23)c1)NC1CCCCC1 [Example 353, N-Cyclohexyl-N′-{3-[3-(thien-2-ylcarbonyl)pyrazolo[1,5-a]pyrimidin-7-yl]phenyl}urea] | < 1 |  |  |  | < 0.1
O=C(CCC(Cl)(Cl)Cl)Nc1cccc(-c2ccnc3c(C(=O)c4cccs4)cnn23)c1 [Example 354, 4,4,4-Trichloro-N-{3-[3-(thien-2-ylcarbonyl)pyrazolo[1,5-a]pyrimidin-7-yl]phenyl}butanamide] | < 1 | < 0.1 |  |  | 
CC(C)(C)CC(=O)Nc1cc(-c2ccnc3c(C(=O)c4cccs4)cnn23)ccc1F [Example 355, N-{2-Fluoro-5-[3-(thien-2-ylcarbonyl)pyrazolo[1,5-a]pyrimidin-7-yl]phenyl}-3,3-dimethylbutanamide] | < 1 | < 0.1 |  |  | 
CC(CC(=O)Nc1cc(-c2ccnc3c(C(=O)c4cccs4)cnn23)ccc1F)C(F)(F)F (stereo not drawn) [Example 356, 4,4,4-Trifluoro-N-{2-fluoro-5-[3-(thien-2-ylcarbonyl)pyrazolo[1,5-a]pyrimidin-7-yl]phenyl}-3-methylbutanamide] | < 1 | < 0.1 |  |  | 
O=C(c1cccs1)c1cnn2c(-c3ccc(F)c(N(C(=O)OCC(Cl)(Cl)Cl)C(=O)OCC(Cl)(Cl)Cl)c3)ccnc12 [Example 357, bis(2,2,2-Trichloroethyl) 2-fluoro-5-[3-(thien-2-ylcarbonyl)pyrazolo[1,5-a]pyrimidin-7-yl]phenylimidodicarbonate] | < 1 | < 0.1 |  |  | 
O=C(Nc1cccc(-c2ccnc3c(C(=O)c4cccs4)cnn23)c1)c1c(F)cccc1F [Example 359, 2,6-Difluoro-N-{3-[3-(thien-2-ylcarbonyl)pyrazolo[1,5-a]pyrimidin-7-yl]phenyl}benzamide] | < 1 | < 0.1 |  |  | 
O=C(Nc1cccc(-c2ccnc3c(C(=O)c4cccs4)cnn23)c1)c1ccccn1 [Example 360, N-{3-[3-(Thien-2-ylcarbonyl)pyrazolo[1,5-a]pyrimidin-7-yl]phenyl}pyridine-2-carboxamide] | < 1 | < 0.1 |  |  | 
O=C(Nc1ccc(-c2ccnc3c(C(=O)c4cccs4)cnn23)s1)c1ccccc1 [Example 361, N-{5-[3-(Thien-2-ylcarbonyl)pyrazolo[1,5-a]pyrimidin-7-yl]thien-2-yl}benzamide] | 10 to 50 | 1 to 20 |  |  | 
O=C(c1cccs1)c1cnn2c(-c3cccc(NCCc4ccccc4)c3)ccnc12 [Example 362, (7-{3-[(2-Phenylethyl)amino]phenyl}pyrazolo[1,5-a]pyrimidin-3-yl)(thien-2-yl)methanone] | 10 to 50 | 1 to 20 |  |  | 
COc1ccccc1CNc1cccc(-c2ccnc3c(C(=O)c4cccs4)cnn23)c1 [Example 363, (7-{3-[(2-Methoxybenzyl)amino]phenyl}pyrazolo[1,5-a]pyrimidin-3-yl)(thien-2-yl)methanone] | 10 to 50 | 0.1 to 1 |  |  | 
CCCCNC(=S)Nc1cccc(-c2ccnc3c(C(=O)c4cccs4)cnn23)c1 [Example 364, N-Butyl-N′-{3-[3-(thien-2-ylcarbonyl)pyrazolo[1,5-a]pyrimidin-7-yl]phenyl}thiourea] | < 1 | < 0.1 |  |  | 
O=C(c1cccs1)c1cnn2c(-c3cccc(NCc4cccc(Cl)c4)c3)ccnc12 [Example 365, (7-{3-[(3-Chlorobenzyl)amino]phenyl}pyrazolo[1,5-a]pyrimidin-3-yl)(thien-2-yl)methanone] | 10 to 50 | 1 to 20 |  |  | 
O=C(c1cccs1)c1cnn2c(-c3cccc(NCc4ccc(Cl)cc4)c3)ccnc12 [Example 366, (7-{3-[(4-Chlorobenzyl)amino]phenyl}pyrazolo[1,5-a]pyrimidin-3-yl)(thien-2-yl)methanone] | 10 to 50 | 1 to 20 |  |  | 
O=C(c1cccs1)c1cnn2c(-c3cccc(NCc4ccco4)c3)ccnc12 [Example 367, (7-{3-[(2-Furylmethyl)amino]phenyl}pyrazolo[1,5-a]pyrimidin-3-yl)(thien-2-yl)methanone] | 1 to 10 | 0.1 to 1 |  |  | 
O=C(c1cccs1)c1cnn2c(-c3cccc(NCc4ccccc4Cl)c3)ccnc12 [Example 368, (7-{3-[(2-Chlorobenzyl)amino]phenyl}pyrazolo[1,5-a]pyrimidin-3-yl)(thien-2-yl)methanone] | 1 to 10 | 0.1 to 1 |  |  | 
